The text below walks through data of US6566307B1, “α,α′-substituted n-alkyl-3-alkenylbenzoyl-pyrazol-derivatives” (BASF Aktiengesellschaft, priority 1999, dated 2003).

Structures are written as SMILES.

Experiment in all cases: Greenhouse herbicidal activity, post-emergence method
Common to all, as to conditions: scale 0 to 100 (100 = complete destruction, 0 = no damage)

For one assay, the system named is POLPE. Type of assay: in vivo, ladysthumb. An excerpt:
(§1) The herbicidal activity of the compounds of the formula I was shown by greenhouse experiments: The culture containers used are plastic pots containing loamy sand with approximately 3.0% of humus as the substrate. The seeds of the test plants are sown separately for each species. For the post-emergence treatment, the test plants were first grown to a height of 3 to 15 cm, depending on the plant form, and only then treated with the active compounds which have been suspended or emulsified in water. The test plants were for this purpose either sown directly and grown in the same containers, or they were first grown separately as seedlings and transplanted into the test containers a few days prior to treatment. The application rate for the post-emergence treatment was 0.25, 0.125 or 0.0625 kg of active substance (a.s.)/ha. Depending on the species, the plants were kept at 10-25° C. or 20-35° C. The test period extended over 2 to 4 weeks. During this time, the plants are tended, and their response to the individual treatments was evaluated. The evaluation was carried out using a scale from 0 to 100. 100 means no emergence of the plants, or complete destruction of at least the aerial parts and 0 means no damage, or normal course of growth. The plants used in the greenhouse experiments were composed of the following species: [table]

The next assay has as its system CHEAL. Type of assay: in vivo, lambsquarter.
Description: as §1

In a further assay the test system is ECHCG. Format: in vivo, barnyardgrass.
Description: as §1

A further assay concerns SETVI. Type of assay: in vivo, green foxtail.
Description: as §1

The subject of a further assay is SINAL. Type of assay: in vivo, white mustard.
Description: as §1

Where [1] appears, read: application rate 0.0625 kg of a.s./ha.
[2] abbreviates: application rate 0.125 kg of a.s./ha.

On to `C=Cc1c(S(C)(=O)=O)ccc(C(=O)C2C=NN(C(C)C)C2O)c1OC` (stereo not shown), for which the “Herbicidal activity when used by the post-emergence method in a greenhouse” value amounted to 100 with POLPE (setting [1]); 100 in the assay on POLPE (setting [2]); 100 in the assay with CHEAL (setting [1]); 100 in the assay on CHEAL (setting [2]); 95 in the assay on ECHCG (setting [1]); 95 with ECHCG (setting [2]). The “Herbicidal activity when used by the post-emergence method in a greenhouse” value is 95 with SETVI (setting [1]), 95 in the assay on SETVI (setting [2]), 98 with SINAL (setting [1]) and 98 in the assay with SINAL (setting [2]).
